Literature values in patent US20120058097A1, “COMPOSITIONS INCLUDING A SODIUM CHANNEL BLOCKER AND A B VITAMIN MOLECULE AND METHODS OF USE THEREOF” (MS THERAPEUTICS LIMITED, priority 2010, published 2012).

How the values were obtained:
[1] = in vivo
[2] = system: people with secondary progressive multiple sclerosis

Nc1nnc(-c2cccc(Cl)c2Cl)c(N)n1 [lamotrigine, 3,5-diamino-6-(2,3-dichlorophenyl)-1,2,4-triaz-ine]
half life [1]: 23 to 36 h
deterioration of walking speed ([2]; compared to the control group, 120 people with secondary progressive multiple sclerosis): approximately halve the deterioration of walking speed
MRI measurements of brain volume ([2]; primary outcome measure, 2 year trial): early reduction in brain volume which was reversible over the 2 year course of the trial
